# Experimental data reported in patent publication US20030092757A1, “Favorable modulation of health-related quality of life and health-related quality-adjusted time-to-progression of disease in patients with prostate cancer” (priority 2001, published 2003).
# Test system: patients having hormone refractory prostate cancer (HRPCa)
# Test: Health-related quality-adjusted time-to-progression (QATTP) of disease, Kaplan-Meier product limit analysis, randomized placebo-controlled study
# Assay type: in vivo, human
# Experimental: The health-related QATTP of disease model for this invention expresses progression-free time as an equally preferable amount of time spent in full health. This is achieved by using patient-reported health-related QoL, as measured for the duration of observation or progression-free interval, to weight progression-free time. […] Patients received treatment with 10 mg (N=89) or 2.5 mg (N=95) of atrasentan or placebo (N=104) until experiencing a clinical event indicative of disease progression such as palliative opiate treatment of new bone or visceral pain, palliative radiation treatment of new bone pain, or new tumor growth symptoms requiring intervention or treatment with chemotherapy. Patient-reported health-related QoL data were collected with the EORTC QLQ-30 and the FACT-G and FACT-P, both of which were administered at baseline, at six week intervals and at each patient's final visit. The results from the 10 mg and 2.5 mg treatment groups are reported relative to the placebo group. A patient's transformed domain score and total score from both the EORTC QLQ-30 and FACT were used to weight the time-to-progression outcome data. Transformed domain scores ranged between 0 and 1, so the reported health-related QATTP of disease outcome was never larger than the actual time-to-progression. Each patient's health-related QATTP of disease was computed as the sum of the health-related QoL weights multiplied by the duration for which that patient experienced that health-related QoL. If a patient experienced a clinical event between two health-related QoL assessments, the set of health-related QoL domain scores immediately prior to the event were carried forward to the time of the clinical event. The mean and median health-related QATTP of disease outcomes were then estimated using Kaplan-Meier product limit methodology (Journal of the American Statistical Association, vol. 53, 1958, pp 457-481). The area under a Kaplan-Meier survival curve conveys an estimated mean health-related QATTP of disease. This analysis was applied to both intent-to-treat and per protocol population data. All health-related QATTP of disease comparisons between atrasentan and placebo treatment groups were based on a log-rank test with statistical significance at an α of 0.05. Results of the Kaplan-Meier product limit survival method analysis are reported in TABLE 2 (Intent to Treat) and TABLE 3 (Per Protocol Population). Mean and median health-related QATTP of disease are shown by treatment group. Log-rank tests comparing the differences between treatment groups are also reported.
# [1] = EORTC Appetite Loss, 2.5 mg, intent to treat
# [2] = EORTC Appetite Loss, 2.5 mg, per protocol
# [3] = EORTC Appetite Loss, 10 mg, intent to treat
# [4] = EORTC Appetite Loss, 10 mg, per protocol
# [5] = EORTC Cognitive Functioning, 2.5 mg, intent to treat
# [6] = EORTC Cognitive Functioning, 2.5 mg, per protocol
# [7] = EORTC Cognitive Functioning, 10 mg, intent to treat
# [8] = EORTC Cognitive Functioning, 10 mg, per protocol
# [9] = EORTC Constipation, 2.5 mg, intent to treat
# [10] = EORTC Constipation, 2.5 mg, per protocol
# [11] = EORTC Constipation, 10 mg, intent to treat
# [12] = EORTC Constipation, 10 mg, per protocol
# [13] = EORTC Diarrhea, 2.5 mg, intent to treat
# [14] = EORTC Diarrhea, 2.5 mg, per protocol
# [15] = EORTC Diarrhea, 10 mg, intent to treat
# [16] = EORTC Diarrhea, 10 mg, per protocol
# [17] = EORTC Dyspnea, 2.5 mg, intent to treat
# [18] = EORTC Dyspnea, 2.5 mg, per protocol
# [19] = EORTC Dyspnea, 10 mg, intent to treat
# [20] = EORTC Dyspnea, 10 mg, per protocol
# [21] = EORTC Emotional Functioning, 2.5 mg, intent to treat
# [22] = EORTC Emotional Functioning, 2.5 mg, per protocol
# [23] = EORTC Emotional Functioning, 10 mg, intent to treat
# [24] = EORTC Emotional Functioning, 10 mg, per protocol
# [25] = EORTC Fatigue, 2.5 mg, intent to treat
# [26] = EORTC Fatigue, 2.5 mg, per protocol
# [27] = EORTC Fatigue, 10 mg, intent to treat
# [28] = EORTC Fatigue, 10 mg, per protocol
# [29] = EORTC Global Score, 2.5 mg, intent to treat
# [30] = EORTC Global Score, 2.5 mg, per protocol
# [31] = EORTC Global Score, 10 mg, intent to treat
# [32] = EORTC Global Score, 10 mg, per protocol
# [33] = EORTC Nausea & Vomiting, 2.5 mg, intent to treat
# [34] = EORTC Nausea & Vomiting, 2.5 mg, per protocol
# [35] = EORTC Nausea & Vomiting, 10 mg, intent to treat
# [36] = EORTC Nausea & Vomiting, 10 mg, per protocol
# [37] = EORTC Pain, 2.5 mg, intent to treat
# [38] = EORTC Pain, 2.5 mg, per protocol
# [39] = EORTC Pain, 10 mg, intent to treat
# [40] = EORTC Pain, 10 mg, per protocol
# [41] = EORTC Physical Functioning, 2.5 mg, intent to treat
smiles,measurement,setting,value
"CCCCN(CCCC)C(=O)CN1C[C@H](c2ccc3c(c2)OCO3)[C@@H](C(=O)O)[C@@H]1c1ccc(OC)cc1 [atrasentan, (2R,3R,4S)-2-(4-methoxyphenyl)-4-(1,3-benzodioxol-5-yl)-1-(((N,N-dibutylamino)carbonyl)methyl)pyrrolidine-3-carboxylic acid]",log rank tests of mean health-related QATTP of disease,"2.5 mg, all health-related QoL domains except dyspnea and functional well-being",statistically significant
same,mean health-related QATTP of disease,"2.5 mg, data in TABLE 2 (so in the source)",longer
same,difference in health-related QATTP between the atrasentan treatment groups,"10 mg vs 2.5 mg, any health-related QoL domain",no statistical differences
same,mean health-related QATTP's of disease,"10 mg, data in TABLE 2 (so in the source), all health-related QoL domains except dyspnea, global score, emotional well-being, social well-being, p<0.05",significantly longer
same,"mean health-related QATTP of disease, trend","10 mg, dyspnea, global score, emotional well-being, social well-being domains, p<0.10",trend favored
same,QATTP of Disease Mean,[1],186 days
same,QATTP of Disease Median,[1],151 days
same,QATTP of Disease Mean,[2],196 days
same,QATTP of Disease Median,[2],162 days
same,QATTP of Disease Mean,[3],175 days
same,QATTP of Disease Median,[3],146 days
same,QATTP of Disease Mean,[4],179 days
same,QATTP of Disease Median,[4],146 days
same,QATTP of Disease Mean,[5],180 days
same,QATTP of Disease Median,[5],151 days
same,QATTP of Disease Mean,[6],190 days
same,QATTP of Disease Median,[6],156 days
same,QATTP of Disease Mean,[7],163 days
same,QATTP of Disease Median,[7],138 days
same,QATTP of Disease Mean,[8],159 days
same,QATTP of Disease Median,[8],144 days
same,QATTP of Disease Mean,[9],180 days
same,QATTP of Disease Median,[9],142 days
same,QATTP of Disease Mean,[10],190 days
same,QATTP of Disease Median,[10],151 days
same,QATTP of Disease Mean,[11],189 days
same,QATTP of Disease Median,[11],132 days
same,QATTP of Disease Mean,[12],198 days
same,QATTP of Disease Median,[12],141 days
same,QATTP of Disease Mean,[13],198 days
same,QATTP of Disease Median,[13],178 days
same,QATTP of Disease Mean,[14],209 days
same,QATTP of Disease Median,[14],184 days
same,QATTP of Disease Mean,[15],185 days
same,QATTP of Disease Median,[15],176 days
same,QATTP of Disease Mean,[16],188 days
same,QATTP of Disease Median,[16],184 days
same,QATTP of Disease Mean,[17],173 days
same,QATTP of Disease Median,[17],141 days
same,QATTP of Disease Mean,[18],180 days
same,QATTP of Disease Median,[18],142 days
same,QATTP of Disease Mean,[19],177 days
same,QATTP of Disease Median,[19],123 days
same,QATTP of Disease Mean,[20],182 days
same,QATTP of Disease Median,[20],132 days
same,QATTP of Disease Mean,[21],177 days
same,QATTP of Disease Median,[21],133 days
same,QATTP of Disease Mean,[22],186 days
same,QATTP of Disease Median,[22],143 days
same,QATTP of Disease Mean,[23],167 days
same,QATTP of Disease Median,[23],125 days
same,QATTP of Disease Mean,[24],169 days
same,QATTP of Disease Median,[24],134 days
same,QATTP of Disease Mean,[25],165 days
same,QATTP of Disease Median,[25],109 days
same,QATTP of Disease Mean,[26],174 days
same,QATTP of Disease Median,[26],127 days
same,QATTP of Disease Mean,[27],153 days
same,QATTP of Disease Median,[27],104 days
same,QATTP of Disease Mean,[28],158 days
same,QATTP of Disease Median,[28],111 days
same,QATTP of Disease Mean,[29],159 days
same,QATTP of Disease Median,[29],104 days
same,QATTP of Disease Mean,[30],167 days
same,QATTP of Disease Median,[30],124 days
same,QATTP of Disease Mean,[31],141 days
same,QATTP of Disease Median,[31],103 days
same,QATTP of Disease Mean,[32],145 days
same,QATTP of Disease Median,[32],106 days
same,QATTP of Disease Mean,[33],195 days
same,QATTP of Disease Median,[33],162 days
same,QATTP of Disease Mean,[34],206 days
same,QATTP of Disease Median,[34],178 days
same,QATTP of Disease Mean,[35],201 days
same,QATTP of Disease Median,[35],156 days
same,QATTP of Disease Mean,[36],207 days
same,QATTP of Disease Median,[36],168 days
same,QATTP of Disease Mean,[37],179 days
same,QATTP of Disease Median,[37],133 days
same,QATTP of Disease Mean,[38],188 days
same,QATTP of Disease Median,[38],142 days
same,QATTP of Disease Mean,[39],172 days
same,QATTP of Disease Median,[39],127 days
same,QATTP of Disease Mean,[40],178 days
same,QATTP of Disease Median,[40],137 days
same,QATTP of Disease Mean,[41],172 days
same,QATTP of Disease Median,[41],118 days
same,QATTP of Disease Mean,"EORTC Physical Functioning, 2.5 mg, per protocol",181 days
